Experimental data taken from US20220313629A1, “TRANSIENT POTENTIAL MELASTATIN 8 (TRPM8) ANTAGONISTS AND RELATED METHODS” (MARSHALL UNIVERSITY RESEARCH CORPORATION, priority 2019, published 2022).
Several values for one entry are separate records, joined by “and”; a condition that tells them apart may be missing. Identical values can stand only once. Like-named read-outs stand apart in the source and are kept apart here.

Assays:
human TRPV1 = human TRPV1 (Homo sapiens, UniProt Q8NER1); assay: TRPV1 agonist and antagonist Ca2+ flux assay (FLIPR, Fluo-8) in HEK293 cells stably expressing human TRPV1; format: cell-based
TRPM8 [1] = target: T1, TRPM8 (Homo sapiens, UniProt Q7Z2W7); assay: TRPM8 antagonist activity by Fura-2 Ca2+ imaging in HEK-293 cells stably expressing human TRPM8; format: cell-based; settings: for IC50: read-out: Functional Activity hTRPM8 potency IC50 ± SEM
Target sequence in this assay (Q7Z2W7 whole entry): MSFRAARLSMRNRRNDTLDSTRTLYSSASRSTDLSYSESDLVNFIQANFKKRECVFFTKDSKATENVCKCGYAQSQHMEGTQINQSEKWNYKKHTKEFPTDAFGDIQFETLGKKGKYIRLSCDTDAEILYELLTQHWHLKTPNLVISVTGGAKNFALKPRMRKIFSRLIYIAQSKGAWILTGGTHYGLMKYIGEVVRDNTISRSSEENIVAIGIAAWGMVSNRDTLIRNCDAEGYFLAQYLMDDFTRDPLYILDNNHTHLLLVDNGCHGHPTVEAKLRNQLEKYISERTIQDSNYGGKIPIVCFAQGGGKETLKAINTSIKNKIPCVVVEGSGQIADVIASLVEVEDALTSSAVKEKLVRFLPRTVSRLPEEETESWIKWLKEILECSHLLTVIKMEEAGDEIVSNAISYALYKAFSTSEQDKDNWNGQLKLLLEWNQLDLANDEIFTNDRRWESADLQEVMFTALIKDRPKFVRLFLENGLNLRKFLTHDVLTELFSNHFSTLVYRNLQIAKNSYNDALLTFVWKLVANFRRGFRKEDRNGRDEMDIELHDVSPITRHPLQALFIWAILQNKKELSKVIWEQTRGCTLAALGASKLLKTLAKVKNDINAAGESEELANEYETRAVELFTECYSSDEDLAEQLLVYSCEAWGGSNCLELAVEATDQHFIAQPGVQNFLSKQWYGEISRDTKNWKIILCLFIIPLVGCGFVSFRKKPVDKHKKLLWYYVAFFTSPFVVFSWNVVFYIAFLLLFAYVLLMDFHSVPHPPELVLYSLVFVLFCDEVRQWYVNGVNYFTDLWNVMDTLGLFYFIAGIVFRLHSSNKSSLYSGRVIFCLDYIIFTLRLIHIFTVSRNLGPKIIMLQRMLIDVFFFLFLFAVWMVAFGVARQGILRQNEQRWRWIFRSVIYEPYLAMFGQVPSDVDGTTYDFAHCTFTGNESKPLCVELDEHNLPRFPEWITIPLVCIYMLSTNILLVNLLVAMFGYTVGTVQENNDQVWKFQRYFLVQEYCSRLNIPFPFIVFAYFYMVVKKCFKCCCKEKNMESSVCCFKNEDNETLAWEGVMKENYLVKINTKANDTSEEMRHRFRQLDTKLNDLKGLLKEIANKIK

human TRPA1 [2] = target: T2, human TRPA1 (Homo sapiens, UniProt O75762); assay: TRPA1 agonist and antagonist Ca2+ flux assay (FLIPR, Fluo-8) in HEK293 cells stably expressing human TRPA1; format: cell-based
TRPM8 [3] = target: T1, TRPM8; settings: cited from earlier work
Target sequence in this assay (Q7Z2W7 whole entry): as above

human TRPA1 [4] = target: T2, human TRPA1; settings: vs. the effect of 80 μM AITC; read-out: IC50 at TRPA1 reported by Klionsky and colleagues; cited from earlier work
[5] = Stability in liver microsomes; format: in vitro ADME; settings: mouse liver microsomes; CLint = k/P
Procedure: Stability in liver microsomes. Male CD-1 mouse liver microsomes (Lot#1710069) were purchased from XenoTech. The reaction mixture, minus NADPH, was prepared as described below. Compound 14 was added into the reaction mixture at a final concentration of 1 μM. The control compound, testosterone, was run simultaneously with Compound 14 in a separate reaction. An aliquot of the reaction mixture (without cofactor) was equilibrated in a shaking water bath at 37° C. for 3 minutes. The reaction was initiated by the addition of the cofactor, and the mixture was incubated in a shaking water bath at 37° C. Aliquots (100 μL) were withdrawn at 0, 10, 20, 30, and 60 minutes. Compound 14 and testosterone samples were immediately combined with 400 μL of ice-cold 50/50 acetonitrile (ACN)/H2O containing 0.1% formic acid and internal standard to terminate the reaction. The samples were then mixed and centrifuged to precipitate proteins. All samples were assayed by LC-MS/MS using electrospray ionization. […] are compared to the PARR at time 0 to determine the percent remaining at each time point. Half-lives and intrinsic clearance were calculated using GraphPad software, fitting to a single-phase exponential decay equation.
In vitro metabolic stability. Compound 14 was evaluated for metabolic stability in mouse liver microsomes by Absorption Systems (Exton, Pa.), by determining the percent remaining at 0, 10, 20, 30 and 60 minutes when incubated with mouse liver microsomes in the presence of NADPH. The half-life (t1/2) and in vitro intrinsic clearance (CLint) of Compound 14 was calculated, in addition to the control (testosterone).

TRPM8 [6] = target: T1, TRPM8; settings: different cell type (CHO vs HEK) or species (human versus mouse); read-out: previously-reported EC50 values; cited from earlier work
Target sequence in this assay (Q7Z2W7 whole entry, species assumed): as the sequence (Q7Z2W7 whole entry) above

TRPM8 [7] = target: T1, TRPM8; assay: TRPM8 agonist (intrinsic) activity by Fura-2 Ca2+ imaging in HEK-293 cells stably expressing human TRPM8; format: cell-based; settings: HEK-293 cells stably expressing hTRPM8; read-out: EC50 (agonist-evoked Ca2+ influx at hTRPM8)
Target sequence in this assay (Q7Z2W7 whole entry): as above

[8] = HEK293; read-out: hTRPV1 % Inhibition (n = 3)
[9] = at concentrations 13- to 25-fold higher than hTRPM8 IC50
[10] = tested at 100 nM; normalized to Emax of capsaicin (3 μM)
[11] = inhibition of icilin (500 nM)-evoked Ca2+ entry, HEK-293 cells stably expressing hTRPM8, mean ± SEM, three independent experiments
[12] = HEK293; read-out: hTRPA1 % Inhibition (n = 3)
[13] = tested at 100 nM; normalized to Emax of AITC (300 μM)
[14] = tested at 1 μM; normalized to Emax of capsaicin (3 μM)
[15] = tested at 1 μM; normalized to Emax of AITC (300 μM)
[16] = HEK293, read-out: hTRPV1 % Inhibition (n = 3)
[17] = HEK293, read-out: hTRPA1 % Inhibition (n = 3)

T2 sequence (O75762 whole entry): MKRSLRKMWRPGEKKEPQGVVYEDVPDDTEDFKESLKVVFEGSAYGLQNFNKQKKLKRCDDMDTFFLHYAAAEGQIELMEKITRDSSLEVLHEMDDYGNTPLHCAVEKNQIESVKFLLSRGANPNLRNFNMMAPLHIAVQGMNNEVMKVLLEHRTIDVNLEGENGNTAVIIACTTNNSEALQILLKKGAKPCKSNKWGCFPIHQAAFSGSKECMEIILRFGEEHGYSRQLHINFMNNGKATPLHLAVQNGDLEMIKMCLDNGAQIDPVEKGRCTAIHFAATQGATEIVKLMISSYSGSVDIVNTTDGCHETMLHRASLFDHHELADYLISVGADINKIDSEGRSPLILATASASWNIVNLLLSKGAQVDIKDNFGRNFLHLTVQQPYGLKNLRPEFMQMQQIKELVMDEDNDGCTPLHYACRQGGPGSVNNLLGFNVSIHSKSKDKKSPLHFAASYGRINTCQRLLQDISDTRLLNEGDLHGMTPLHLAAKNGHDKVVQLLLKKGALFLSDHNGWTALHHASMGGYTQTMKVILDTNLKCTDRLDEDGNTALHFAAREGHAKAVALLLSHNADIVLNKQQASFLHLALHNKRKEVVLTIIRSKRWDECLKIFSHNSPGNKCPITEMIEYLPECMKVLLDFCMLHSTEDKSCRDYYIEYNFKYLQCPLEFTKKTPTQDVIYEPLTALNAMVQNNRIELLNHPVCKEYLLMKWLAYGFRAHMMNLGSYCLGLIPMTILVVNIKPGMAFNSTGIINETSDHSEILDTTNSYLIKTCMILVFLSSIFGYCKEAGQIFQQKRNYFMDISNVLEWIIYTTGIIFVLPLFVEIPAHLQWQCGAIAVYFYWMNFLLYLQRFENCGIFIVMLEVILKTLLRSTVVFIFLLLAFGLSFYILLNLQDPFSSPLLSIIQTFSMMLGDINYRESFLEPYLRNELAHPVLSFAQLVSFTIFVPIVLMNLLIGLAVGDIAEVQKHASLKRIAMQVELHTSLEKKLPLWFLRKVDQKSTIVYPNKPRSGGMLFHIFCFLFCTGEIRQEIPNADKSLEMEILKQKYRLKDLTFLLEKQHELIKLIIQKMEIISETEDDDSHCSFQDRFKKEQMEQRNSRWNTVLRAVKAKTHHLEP
human TRPV1, sequence (Q8NER1 whole entry): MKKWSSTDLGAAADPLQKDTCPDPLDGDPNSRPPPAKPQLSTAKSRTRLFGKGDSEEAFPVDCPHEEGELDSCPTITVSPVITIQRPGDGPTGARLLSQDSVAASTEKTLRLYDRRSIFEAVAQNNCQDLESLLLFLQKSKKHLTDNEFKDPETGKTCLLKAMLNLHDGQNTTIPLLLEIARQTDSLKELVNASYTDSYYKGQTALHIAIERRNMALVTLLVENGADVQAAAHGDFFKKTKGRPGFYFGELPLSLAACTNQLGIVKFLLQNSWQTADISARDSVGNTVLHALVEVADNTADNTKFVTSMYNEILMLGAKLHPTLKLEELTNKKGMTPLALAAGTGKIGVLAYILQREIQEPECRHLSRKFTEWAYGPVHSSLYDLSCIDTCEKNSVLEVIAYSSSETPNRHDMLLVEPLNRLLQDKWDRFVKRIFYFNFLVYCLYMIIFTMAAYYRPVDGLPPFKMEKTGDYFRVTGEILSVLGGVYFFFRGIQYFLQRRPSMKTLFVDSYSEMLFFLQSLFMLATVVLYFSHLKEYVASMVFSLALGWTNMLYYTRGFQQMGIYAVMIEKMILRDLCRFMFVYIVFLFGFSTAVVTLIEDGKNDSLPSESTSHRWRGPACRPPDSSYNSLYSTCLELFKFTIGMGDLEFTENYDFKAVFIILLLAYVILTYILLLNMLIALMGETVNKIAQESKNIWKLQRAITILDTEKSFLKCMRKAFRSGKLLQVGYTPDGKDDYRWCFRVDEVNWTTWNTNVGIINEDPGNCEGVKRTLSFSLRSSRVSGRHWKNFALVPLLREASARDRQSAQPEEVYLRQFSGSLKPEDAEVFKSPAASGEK

## O=C(NC1CCC2CCCCC2C1)c1ccc(-c2ccccc2)cc1 (mixture of isomers) [Compound 10, N-(decahydronaphthalen-2-yl)-[1,1′-biphenyl]-4-carboxamide]
Human TRPV1; [8]
  inhibition at 0.01 µM: -13 ± 4%
  inhibition at 0.1 µM: 2 ± 3%
Human TRPV1; [9]
  effect on hTRPV1-mediated responses (intrinsic and antagonist activity): does not activate or inhibit
Human TRPV1; tested at 10 nM; normalized to Emax of capsaicin (3 μM)
  hTRPV1 % Activation (n = 3): 2.4 ± 0.8%
Human TRPV1; [10]
  hTRPV1 % Activation (n = 3): 2.3 ± 0.9%
TRPM8 [1]; icilin Ca2+ assay
  enhancement of TRPM8 potency relative to Compound 8: 3,500 fold
  higher potency than Compound 5 and Compound 7: 10 fold
TRPM8 [1]; [11]
  IC50: 6 ± 1 nM
TRPM8 [1]
  IC50: ≤ 10 nM
Human TRPA1 [2]; [12]
  inhibition at 0.01 µM: -8 ± 3%
  inhibition at 0.1 µM: -1 ± 10%
Human TRPA1 [2]; [9]
  effect on hTRPA1-mediated responses (intrinsic and antagonist activity): does not activate or inhibit
Human TRPA1 [2]; tested at 10 nM; normalized to Emax of AITC (300 μM)
  hTRPA1 % Activation (n = 3-5): 0.2 ± 0.4%
Human TRPA1 [2]; [13]
  hTRPA1 % Activation (n = 3-5): −1.1 ± 0.2%

## O=C(NC1CCCCCC1)c1ccc(-c2ccccc2)cc1 [Compound 5, N-cycloheptyl-[1,1′-biphenyl]-4-carboxamide]
Human TRPV1; [8]
  inhibition at 0.1 µM: -3 ± 4%
  inhibition at 1 µM: 24 ± 1%
Human TRPV1; [10]
  hTRPV1 % Activation (n = 3): 0.0 ± 1.0%
Human TRPV1; [14]
  hTRPV1 % Activation (n = 3): 0.6 ± 1.5%
TRPM8 [1]; [11]
  IC50: 52 ± 1 nM
Human TRPA1 [2]; [12]
  inhibition at 0.1 µM: -2 ± 5%
  inhibition at 1 µM: 4 ± 5%
Human TRPA1 [2]; [13]
  hTRPA1 % Activation (n = 3-5): 0.1 ± 0.7%
Human TRPA1 [2]; [15]
  hTRPA1 % Activation (n = 3-5): 0.8 ± 0.5%

## O=C(NC1CCCCCCC1)c1ccc(-c2ccccc2)cc1 [Compound 7, N-cyclooctyl-[1,1′-biphenyl]-4-carboxamide]
Human TRPV1; [8]
  inhibition at 0.1 µM: -4 ± 4%
  inhibition at 1 µM: 14 ± 4%
Human TRPV1; [10]
  hTRPV1 % Activation (n = 3): −1.9 ± 0.7%
Human TRPV1; [14]
  hTRPV1 % Activation (n = 3): −3.2 ± 0.6%
TRPM8 [1]; [11]
  IC50: 62 ± 1 nM
Human TRPA1 [2]; [12]
  inhibition at 0.1 µM: -13 ± 4%
  inhibition at 1 µM: 0.2 ± 6%
Human TRPA1 [2]; [13]
  hTRPA1 % Activation (n = 3-5): −1.0 ± 0.1%
Human TRPA1 [2]; [15]
  hTRPA1 % Activation (n = 3-5): −1.5 ± 0.9%

## O=C(NC1CCCc2ccccc21)c1ccc(-c2ccccc2)cc1 (stereo not drawn) [Compound 9, N-(1,2,3,4-tetrahydronaphthalen-1-yl)-[1,1′-biphenyl]-4-carboxamide]
TRPM8 [1]; icilin Ca2+ assay
  loss of potency vs. Compound 8: 3 fold
TRPM8 [1]
  IC50: 55000 ± 1000 nM

## O=C(NC1CCc2ccccc2C1)c1ccc(-c2ccccc2)cc1 (stereo not drawn) [Compound 11, N-(1,2,3,4-tetrahydronaphthalen-2-yl)-[1,1′-biphenyl]-4-carboxamide]
Human TRPV1; [16]
  inhibition at 0.1 µM: -3.1 ± 0.6%
  inhibition at 1 µM: 13 ± 3%
Human TRPV1; [10]
  hTRPV1 % Activation (n = 3): −1.8 ± 0.9%
Human TRPV1; [14]
  hTRPV1 % Activation (n = 3): −0.7 ± 1.5%
TRPM8 [1]; icilin Ca2+ assay
  decrease of hTRPM8 potency (vs. Compound 10): 9 fold
TRPM8 [1]
  IC50: 52 ± 1 nM
Human TRPA1 [2]; [17]
  inhibition at 0.1 µM: 3 ± 6%
  inhibition at 1 µM: 4 ± 1%
Human TRPA1 [2]; [13]
  hTRPA1 % Activation (n = 3-5): −0.1 ± 0.5%
Human TRPA1 [2]; [15]
  hTRPA1 % Activation (n = 3-5): −0.8 ± 0.6%

## O=C(NC1CCC2(CCCCC2)CC1)c1ccc(-c2ccccc2)cc1 [Compound 13, N-(spiro[5.5]undecan-3-yl)-[1,1′-biphenyl]-4-carboxamide]
Human TRPV1; [8]
  inhibition at 0.1 µM: -3 ± 4%
  inhibition at 1 µM: 5 ± 2%
Human TRPV1; [9]
  effect on hTRPV1-mediated responses (intrinsic and antagonist activity): do not affect
Human TRPV1; [10]
  hTRPV1 % Activation (n = 3): −1.0 ± 0.4%
Human TRPV1; [14]
  hTRPV1 % Activation (n = 3): 0.7 ± 0.2%
TRPM8 [1]; [11]
  IC50: 40 ± 1 nM
Human TRPA1 [2]; [12]
  inhibition at 0.1 µM: -1 ± 5%
  inhibition at 1 µM: -7 ± 9%
Human TRPA1 [2]; [9]
  effect on hTRPA1-mediated responses (intrinsic and antagonist activity): do not affect
Human TRPA1 [2]; [13]
  hTRPA1 % Activation (n = 3-5): 0.2 ± 0.5%
Human TRPA1 [2]; [15]
  hTRPA1 % Activation (n = 3-5): −0.2 ± 1.1%

## O=C(NC12CC3CC(CC(C3)C1)C2)c1ccc(-c2ccccc2)cc1 [Compound 15, N-(adamantan-1-yl)-[1,1′-biphenyl]-4-carboxamide]
Human TRPV1; [8]
  inhibition at 0.03 µM: -6 ± 5%
  inhibition at 0.3 µM: 3 ± 4%
Human TRPV1; [9]
  effect on hTRPV1-mediated responses (intrinsic and antagonist activity): do not affect
Human TRPV1; tested at 30 nM; normalized to Emax of capsaicin (3 μM)
  hTRPV1 % Activation (n = 3): 1.0 ± 0.2%
Human TRPV1; tested at 300 nM; normalized to Emax of capsaicin (3 μM)
  hTRPV1 % Activation (n = 3): 1 ± 2%
TRPM8 [1]; [11]
  IC50: 16 ± 1 nM
Human TRPA1 [2]; [12]
  inhibition at 0.3 µM: -7 ± 7%
Human TRPA1 [2]; [9]
  effect on hTRPA1-mediated responses (intrinsic and antagonist activity): do not affect
Human TRPA1 [2]; tested at 30 nM; normalized to Emax of AITC (300 μM)
  hTRPA1 % Activation (n = 3-5): −2.6 ± 0.5%
Human TRPA1 [2]; tested at 300 nM; normalized to Emax of AITC (300 μM)
  hTRPA1 % Activation (n = 3-5): −1.5 ± 0.4%

## C[C@H](c1ccc(F)cc1)N(Cc1cccc(C(=O)O)c1)C(=O)c1cnc2ccccc2c1 [PF-05105679]
TRPM8 [3]; literature, read-out: IC50, inhibition of WS-12-mediated activation at human TRPM8
  IC50: 181 ± 7.21 nM
TRPM8 [3]; literature, read-out: IC50, inhibition of voltage-mediated activation at human TRPM8
  IC50: 103 ± 29.4 nM
TRPM8 [3]; literature, read-out: hTRPM8 IC50 (reported Ca2+ flux activity)
  IC50: 181 nM

## O=C(O)c1ccc(S(=O)(=O)N(Cc2ccc(OC(F)(F)F)cc2)c2ncc(C(F)(F)F)cc2Cl)cc1 [RQ-00203078, reference compound]
TRPM8 [3]; HEK cells expressing hTRPM8, read-out: IC50 previously reported against 30 μM menthol-evoked Ca2+ influx
  IC50: ~8 nM
TRPM8 [3]; literature
  reported potency at hTRPM8: < 10 nM
TRPM8 [1]; [11]
  IC50: 2.96 nM and 3 nM

## N.N.N.N.N.N.N.N.N.N.N.N.N.N.[Cl-].[Cl-].[Cl-].[Cl-].[Cl-].[Cl-].[O-2].[O-2].[Ru+3].[Ru+3].[Ru+4] [Ruthenium Red, reference compound]
Human TRPA1 [4]
  IC50: 29 ± 6 nM
Human TRPA1 [2]; 3 nM; vs EC80 of AITC
  % Activation Mean ± SEM (n = 5), TRPA1 antagonist data (Percentage Inhibition Normalized to EC80 Control): −6.0 ± 1.2%
Human TRPA1 [2]; 10 nM; vs EC80 of AITC
  % Activation Mean ± SEM (n = 5), TRPA1 antagonist data (Percentage Inhibition Normalized to EC80 Control): 1.9 ± 2.4%
Human TRPA1 [2]; 30 nM; vs EC80 of AITC
  % Activation Mean ± SEM (n = 5), TRPA1 antagonist data (Percentage Inhibition Normalized to EC80 Control): 5.8 ± 4.6%
Human TRPA1 [2]; 100 nM; vs EC80 of AITC
  % Activation Mean ± SEM (n = 5), TRPA1 antagonist data (Percentage Inhibition Normalized to EC80 Control): 15.7 ± 9.8%
Human TRPA1 [2]; 300 nM; vs EC80 of AITC
  % Activation Mean ± SEM (n = 5), TRPA1 antagonist data (Percentage Inhibition Normalized to EC80 Control): 91.1 ± 2.9%
Human TRPA1 [2]; 1,000 nM; vs EC80 of AITC
  % Activation Mean ± SEM (n = 5), TRPA1 antagonist data (Percentage Inhibition Normalized to EC80 Control): 100.9 ± 0.1%
Human TRPA1 [2]; 3,000 nM; vs EC80 of AITC
  % Activation Mean ± SEM (n = 5), TRPA1 antagonist data (Percentage Inhibition Normalized to EC80 Control): 100.9 ± 0.7%
Human TRPA1 [2]; 10,000 nM; vs EC80 of AITC
  % Activation Mean ± SEM (n = 5), TRPA1 antagonist data (Percentage Inhibition Normalized to EC80 Control): 100.8 ± 0.3%
Human TRPA1 [2]; AITC 10 μM; read-out: IC50, blockade of AITC-activated hTRPA1 responses
  IC50: 162 ± 33 nM

## C[C@]12CC[C@H]3[C@@H](CCC4=CC(=O)CC[C@@]43C)[C@@H]1CC[C@@H]2O [Testosterone, reference compound]
[5]
  CLint (mL/min/mg protein): 0.372 mL/min/mg protein

## O=C1NC(c2cccc([N+](=O)[O-])c2)=CCN1c1ccccc1O [icilin, 3-(2-hydroxyphenyl)-6-(3-nitrophenyl)-3,4-dihydropyrimidin-2(1H)-one]
TRPM8 [6]
  EC50: 120 to 200 nM
TRPM8 [7]
  EC50: ~70 nM and 74 nM
